Measurements reported in the SangsterLogP compilation.

Assay: method code SF-AS, from DOI: 10.1016/0048-3575(87)90042-3

Q: Which logP does the source give for Cc1cccc([N+](=O)[O-])c1C(=O)NC(=O)Nc1ccc(Cl)cc1 here?
A: 3.75

Q: For CNC(=O)NC(=O)c1ccccc1, which logP is on record?
A: 1.27

Q: Which logP does the source give for CC(=O)NC(=O)Nc1ccccc1 here?
A: 1.6

Q: Which logP does the source give for CCNC(=O)NC(=O)c1ccccc1 here?
A: 1.92

Q: For COc1ccccc1C(N)=O, which logP is on record?
A: 0.84

Q: For Cc1cccc([N+](=O)[O-])c1C(N)=O, which logP is on record?
A: 0.12

Q: For NC(=O)c1c(F)cccc1F, which logP is on record?
A: 0.25

Q: Which logP does the source give for NC(=O)Nc1ccccc1 here?
A: 0.83

Q: Which logP does the source give for O=C(NC(=O)c1ccccc1)Nc1ccccc1 here?
A: 3.39

Q: For COc1ccccc1C(=O)NC(=O)Nc1ccc(Cl)cc1, which logP is on record?
A: 4.35

Assay: method code SF-GLC, from DOI: 10.1016/0048-3575(87)90042-3

Q: For CNC(=O)NC(C)=O, which logP is on record?
A: -0.7

Q: Which logP does the source give for CCNC(=O)NC(C)=O here?
A: -0.01

Q: For CNC(N)=O, which logP is on record?
A: -1.4
